Source: US6554620B1, “Aqueous disinfectant/sterilizing agent for foods” (priority 2001, dated 2003)
Values joined by “and” are separate entries in the source; they are usually repeats but may differ in a detail not shown here. Identical values can stand only once. Like-named read-outs stand apart in the source and are kept apart here.

How the values were obtained:
[1] = tested on: Salmonella typhimurium TA98; experiment: Reverse mutation screening assay; type: cell-based
Experimental: (§1) The test was conducted at Biosafety Research Center for Foods, Drugs and Pesticides, in Shizuoka, Japan.

[2] = tested on: Salmonella typhimurium TA100; experiment: Reverse mutation screening assay; type: cell-based
Experimental: as §1

[3] = tested on: Aspergillus niger (IFO 4414); experiment: Efficacy comparison (MIC method) of hinokitiol as single substance and the invented agent; type: cell-based; set-up: key: growth of bacteria is shown as “+”; no growth is shown as “−”; conditions: 7 days at 30° C.
Experimental: (§2) Escherihia coli (IFO 3972) and Aspergillus niger (IFO 4414) were used utilizing the minimum inhibitory method (MIC) to conduct a comparison testing the efficacy of hinokitiol as a single substance and the invented aqueous disinfectant.
(§3) Type II of the invented agent as previously described, having a hinokitiol concentration of 0.1 weight % (1000 ppm) was diluted 10 times, 20 times, 50 times, and 100 times and standard agar plate for E-coli and potato dextrose agar plate for aspergillus niger were prepared for each concentration. With hinokitiol as single substance, for 1000 g of water, 1 g of hinokitiol was used to make 0.1% solution, and this was diluted 10 times, 20 times, 50 times, and 100 times and standard agar plates and potato dextrose plates were prepared at each concentration. E-coli and aspergillus niger were implanted to the plate and cultivated for 7 days at 30° C. and the growth of the bacteria was observed. The result are shown in Table 4 below, where growth of bacteria is shown as “+”, and no growth is shown as “−”.

[4] = Water solubility of hinokitiol; type: physicochemical
Description: It has been said that the water solubility of hinokitiol as a single substance, in weight is maximum 0.2 weight %. However, in our experiment, we could not make it more than 0.1 weight %.
With this invention, by mixing hinokitiol with the extract of aloe vera, green tea, low striped bamboo and dokudami, it is possible to make a 1.0 weight % water solution without difficulty. In addition to the above mixture, we have succeeded in making 10 weight % of concentration of hinokitiol in water basis by adding glycerin fatty acid ester as surface active agent and cara saponine, which is an emulsifier. Alcohol (ethanol) is not required as an ingredient to achieve the above noted high concentration of hinokitiol.
It is known fact that with the addition of ethanol, it is possible to make 5 weight % water solution but for some foods, adding alcohol is not suitable and can change the taste of foods. Therefore, this invention of non-alcoholic water soluble disinfectant solution has particular significance.

[5] = cited from earlier work
[6] = tested on: Escherihia coli (IFO 3972); experiment: Efficacy comparison (MIC method) of hinokitiol as single substance and the invented agent; type: cell-based, Escherichia coli; set-up: key to growth: growth of bacteria is shown as “+”; no growth is shown as “−”; conditions: 7 days at 30° C.
Experimental: as §2, §3

[7] = positive control requiring S9 mix, 0.5 μg/plate, Table 15
[8] = positive control requiring S9 mix, 0.5 μg/plate, Table 16
[9] = positive control requiring S9 mix, 1.0 μg/plate, Table 15
[10] = positive control requiring S9 mix, 1.0 μg/plate, Table 16
[11] = positive control not requiring S9 mix, 0.1 μg/plate, Table 15
[12] = positive control not requiring S9 mix, 0.1 μg/plate, Table 16
[13] = positive control not requiring S9 mix, 0.01 μg/plate, Table 15
[14] = positive control not requiring S9 mix, 0.01 μg/plate, Table 16
[15] = 10 times dilution of 0.1 weight % hinokitiol solution
[16] = 20 times dilution of 0.1 weight % hinokitiol solution
[17] = 50 times dilution of 0.1 weight % hinokitiol solution
[18] = 100 times dilution of 0.1 weight % hinokitiol solution

SMILES: Nc1ccc2cc3ccccc3cc2c1 [2-AA]
- No. of revertants, mean in parentheses [1, 7]: 200 colonies/plate
- No. of revertants, single plates [1, 7]: 203 colonies/plate and 196 colonies/plate
- No. of revertants, mean in parentheses [1, 8]: 208 colonies/plate
- No. of revertants, single plates [1, 8]: 197 colonies/plate and 219 colonies/plate
- No. of revertants, mean in parentheses [2, 9]: 686 colonies/plate
- No. of revertants, single plates [2, 9]: 683 colonies/plate and 688 colonies/plate
- No. of revertants, mean in parentheses [2, 10]: 649 colonies/plate
- No. of revertants, single plates [2, 10]: 647 colonies/plate and 650 colonies/plate

SMILES: NC(=O)/C(=C\c1ccc([N+](=O)[O-])o1)c1ccco1 [AF-2]
- No. of revertants, mean in parentheses [1, 11]: 733 colonies/plate
- No. of revertants, single plates [1, 11]: 747 colonies/plate and 718 colonies/plate
- No. of revertants, mean in parentheses [1, 12]: 692 colonies/plate
- No. of revertants, single plates [1, 12]: 698 colonies/plate and 686 colonies/plate
- No. of revertants, mean in parentheses [2, 13]: 370 colonies/plate
- No. of revertants, single plates [2, 13]: 377 colonies/plate and 363 colonies/plate
- No. of revertants, mean in parentheses [2, 14]: 410 colonies/plate
- No. of revertants, single plates [2, 14]: 408 colonies/plate and 412 colonies/plate

SMILES: CC(C)c1cccc(=O)c(O)c1 [Hinokitiol, β-Thujaplicin]
- growth [3, 15]: −
- growth [3, 16]: +
- growth [3, 17]: +
- growth [3, 18]: +
- concentration of hinokitiol in water basis obtainable ([4]; extracts plus glycerin fatty acid ester and cara saponine, no alcohol): 10 weight %
- water solubility of hinokitiol as a single substance, in our experiment ([4]; in water): ≤ 0.1 weight %
- hinokitiol water solution obtainable ([4]; mixed with extract of aloe vera, green tea, low striped bamboo and dokudami): 1.0 weight %
- water solubility of hinokitiol as a single substance, maximum as has been said ([5]; in water): ≤ 0.2 weight %
- hinokitiol water solution obtainable ([5]; with the addition of ethanol, known fact): 5 weight %
- growth [6, 15]: −
- growth [6, 16]: +
- growth [6, 17]: +
- growth [6, 18]: +
- hinokitiol concentration of the highest dilution that is effective (MIC method) ([6]; E-coli and Aspergillus niger): 0.01%
